Results taken from US20230393140A1, “BINDING ASSAYS INVOLVING A PLURALITY OF SYNTHETIC COMPOUNDS, TARGETS, AND COUNTER TARGETS” (SRI International, priority 2020, published 2023).
Like-named read-outs stand apart in the source and are kept apart here. Numbered stars: 1 amine (or outer) side, 2 acyl side, 3 side chain; on linkers, the order of the positions; unused ones are H or OH. Square brackets hold non-standard residues; d marks the D form. Peptide text beside a SMILES is read from it. * marks the point of attachment. 5FAM = O=C1OC2(c3ccc(O)cc3Oc3cc(O)ccc32)c2ccc(C(=O)*)cc21; NHCH2C6H4(4-CH2CONH2) = NC(=O)Cc1ccc(CN*)cc1; X1 = O=C(Cc1ccc(CN[*:1])cc1)[*:2]

Assays:
K-Ras = biological target: T1, K-Ras (Homo sapiens, UniProt P01116, G12V); assay: MST binding affinity of resynthesized NNP hits to K-Ras
T1 construct: purchased Cytoskeleton Inc. CS-RS04
Experimental: Loading was performed according to the following protocol: The 200 μM stock solution of the target protein was diluted to 10 μM in 20 mM HEPES pH 8.0, 150 mM NaCl, 10 mM MgCl2, 1 mM TCEP, 0.05% Tween-20 (total volume 110 μL). 10 μL were set aside for later labeling quality control. EDTA pH 8.0 (stock concentration 10 mM) was added to the protein solution to a final concentration of 80 μM. GTP (stock concentration 50 mM) was added to the protein solution to a final concentration of 750 μM. The solution was incubated at 30° C. for 2 hours (PCR tube) and then placed on ice for 2 minutes. MgCl2 was added to the protein solution to a final concentration of 100 mM. The resulting protein solution was buffer exchanged into the buffer required in the labeling kit for labeling. […] All the other target molecules (TNFα, IL-6, IL-6R and ASGPR) were used as received without any additional treatment.
Hit binding affinity to various targets were determined using Microscale Thermophoresis (MST). MST experiments were performed on a Monolith NT.115pico (NanoTemper Technologies GmbH, Munich, Germany). Measurements were performed at room temperature, in triplicate with incubation periods of 15, 30 and 45 minutes. […] Targets were labeled using Nanotemper Monolith 2nd Generation Protein Labeling Kits. RED-MALEIMIDE (Maleimide-647-dye) labeling kit was used for K-Ras and RED-NHS (NHS-647-dye) labeling kit was used for IL-6, IL-6R, TNFα and ASGPR. The buffer for the ASGPR contained 20 mM HEPES pH 7.4, 150 mM NaCl, 10 mM MgCl2, 2 mM CaCl2, 0.05% Pluronic F-127, and 1 mM DTT; for IL-6 contained 20 mM HEPES pH 7.4, 150 mM KCl, 10 mM MgCl2, and 0.1% Pluronic F-127; for the soluble IL-6 receptor 20 mM HEPES pH 7.4, 150 mM NaCl, 10 mM MgCl2, and 0.05% Tween-20; for K-Ras 20 mM HEPES pH 7.4, 150 mM NaCl, 10 mM MgCl2, 0.05% Tween-20 and 1 mM DTT; for TNFα 10 mM HEPES pH 7.4, 150 mM NaCl, 10 mM MgCl2, 0.05% Polysorbate-20. Triplicate data was analyzed using MO.AffinityAnalysis software (NanoTemper Technologies GmbH).

cRaf/K-Ras (G12V) PPI = biological target: T2, cRaf/K-Ras (G12V) PPI (Homo sapiens, UniProt P01116, G12V); assay: K-Ras-cRaf HTRF-based PPI profiling; format: biochemical; conditions: for blank corrected HTRF: raw data, compounds without fluorescein;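 for blank corrected HTRF: background is the signal of wells with all components except cRaf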
T2 construct: b-Kras G12V (GppNHp) (aa 2-169); biotin (b-
Experimental: In some experimental embodiments, a buffer was added to the assay wells which included […] HEPES pH 7.4, 150 mM NaCl, 5 mM MgCl2, 1 mM DTT, 0.005% NP40, and 1% DMSO. 5 uL of 3×K-Ras protein was then added to the assay wells, followed by the synthetic compounds which were added using acoustic technology (ECHO, Labcyte) followed by thirty minutes incubation at room temperature. Afterwards, 5 uL of 3×cRaf protein was added to the assay wells and 5 uL of detection mix was then added to the assay wells after 30 minutes. The detection mix included Mab anti-GST-Tb cryptate (Cisbio 61GSTTLB) and streptavidin-XL665 (Ex/Em=(337/665; 620) in PHERAstar (BMG Labtech)). HTRF signal was measured […] later.
The data includes raw data (signal-background without cRaf protein but with all other component), % binding (relative to DMSO controls), and curve fits. Curve fits were performed when the activities at the highest concentration of the synthetic compounds were less than 65%. Tables 18A-18B below includes the raw data (e.g., blank corrected HTRF) and Tables 19A-19B includes the % binding.

[1] = read-out: KD (nM) [95% conf. int], MST, NNP1 library hit, target K-Ras, one-site binding model

CC(C)C[C@H](NC(=O)[C@@H](CCCNC(=N)N)NC(=O)[C@@H](CCCCN)NC(=O)[C@@H](CCC(=O)O)NC(=O)[C@@H](Cc1ccccc1)NC(=O)Cc1ccc(CNC(=O)[C@H](Cc2ccccc2)NC(=O)[C@@H](CO)NC(=O)[C@@H](CCC(=O)O)NC(=O)[C@H]2CCCN2C(=O)[C@@H](CC(C)C)NC(=O)c2ccc3c(c2)C(=O)OC32c3ccc(O)cc3Oc3cc(O)ccc32)cc1)C(=O)NCc1ccc(CC(=O)N2CCC[C@@H]2C(=O)N[C@H](CO)C(=O)N[C@H](CCC(=O)O)C(=O)N[C@H](CCCNC(=N)N)C(=O)NCC(=O)NCc2ccc(CC(=O)N3CCC[C@@H]3C(=O)N[C@H](CCCCN)C(=O)N[C@H](Cc3ccc(O)cc3)C(=O)N[C@H](CCCNC(=N)N)C(=O)N[C@@H](Cc3ccccc3)C(=O)NCc3ccc(CC(=O)N4CCC[C@@H]4C(=O)NCC(=O)N[C@H](CCCNC(=N)N)C(=O)N[C@H](Cc4c[nH]c5ccccc45)C(=O)NCC(=O)NCc4ccc(CC(=O)NCC(=O)N[C@H](Cc5c[nH]c6ccccc56)C(=O)N[C@H](Cc5c[nH]cn5)C(=O)N[C@H](CCCNC(=N)N)C(=O)N[C@@H](C)C(=O)NCc5ccc(CC(N)=O)cc5)cc4)cc3)cc2)cc1 [KRAS-1-12] (5FAM-[dL][dP][dE][dS]F[X1][dF][dE][dK][dR]L[X1][dP][dS][dE][dR]G[X1][dP][dK][dY][dR]F[X1][dP]G[dR][dW]G[X1]G[dW][dH][dR]A-{NHCH2C6H4(4-CH2CONH2)})
Kd (K-Ras; [1]): 24 nM

CC(C)[C@H](NC(=O)[C@@H](Cc1ccc(O)cc1)NC(=O)[C@@H](Cc1c[nH]cn1)NC(=O)[C@H]1CCCN1C(=O)[C@@H](Cc1c[nH]c2ccccc12)NC(=O)c1ccc2c(c1)C(=O)OC21c2ccc(O)cc2Oc2cc(O)ccc21)C(=O)NCc1ccc(CC(=O)NCC(=O)N[C@@H](C(=O)N2CCC[C@@H]2C(=O)N[C@H](CCCNC(=N)N)C(=O)N[C@@H](C)C(=O)NCc2ccc(CC(=O)N3CCC[C@@H]3C(=O)N[C@H](CO)C(=O)N[C@H](CCC(=O)O)C(=O)N[C@H](CCCNC(=N)N)C(=O)NCC(=O)NCc3ccc(CC(=O)N4CCC[C@@H]4C(=O)N[C@H](CCCCN)C(=O)N[C@H](Cc4ccc(O)cc4)C(=O)N[C@H](CCCNC(=N)N)C(=O)N[C@@H](Cc4ccccc4)C(=O)NCc4ccc(CC(=O)N5CCC[C@@H]5C(=O)NCC(=O)N[C@H](CCCNC(=N)N)C(=O)N[C@H](Cc5c[nH]c6ccccc56)C(=O)NCC(=O)NCc5ccc(CC(=O)N[C@H](Cc6ccc(O)cc6)C(=O)N6CCC[C@@H]6C(=O)N[C@H](CCCNC(=N)N)C(=O)N[C@H](CCC(=O)O)C(=O)NCC(=O)NCc6ccc(CC(N)=O)cc6)cc5)cc4)cc3)cc2)C(C)C)cc1 [KRAS-1-2] (5FAM-[dW][dP][dH][dY]V[X1]G[dV][dP][dR]A[X1][dP][dS][dE][dR]G[X1][dP][dK][dY][dR]F[X1][dP]G[dR][dW]G[X1][dY][dP][dR][dE]G-{NHCH2C6H4(4-CH2CONH2)})
Kd (K-Ras; [1]): 49 nM

CC(C)C[C@@H](NC(=O)c1ccc2c(c1)C(=O)OC21c2ccc(O)cc2Oc2cc(O)ccc21)C(=O)N1CCC[C@@H]1C(=O)N[C@H](CCC(=O)O)C(=O)N[C@H](CO)C(=O)N[C@@H](Cc1ccccc1)C(=O)NCc1ccc(CC(=O)NCC(=O)N[C@@H](C(=O)N2CCC[C@@H]2C(=O)N[C@H](CCCNC(=N)N)C(=O)N[C@@H](C)C(=O)NCc2ccc(CC(=O)N3CCC[C@@H]3C(=O)N[C@H](CO)C(=O)N[C@H](CCC(=O)O)C(=O)N[C@H](CCCNC(=N)N)C(=O)NCC(=O)NCc3ccc(CC(=O)N4CCC[C@@H]4C(=O)N[C@H](CCCCN)C(=O)N[C@H](Cc4ccc(O)cc4)C(=O)N[C@H](CCCNC(=N)N)C(=O)N[C@@H](Cc4ccccc4)C(=O)NCc4ccc(CC(=O)N[C@H](CCCNC(=N)N)C(=O)N[C@H](Cc5ccc(O)cc5)C(=O)N[C@@H](C(=O)N[C@H](CCC(=O)O)C(=O)N[C@@H](C)C(=O)NCc5ccc(CC(=O)NCC(=O)N[C@H](Cc6c[nH]c7ccccc67)C(=O)N[C@H](Cc6c[nH]cn6)C(=O)N[C@H](CCCNC(=N)N)C(=O)N[C@@H](C)C(=O)NCc6ccc(CC(N)=O)cc6)cc5)[C@H](C)O)cc4)cc3)cc2)C(C)C)cc1 [KRAS-1-3] (5FAM-[dL][dP][dE][dS]F[X1]G[dV][dP][dR]A[X1][dP][dS][dE][dR]G[X1][dP][dK][dY][dR]F[X1][dR][dY][dT][dE]A[X1]G[dW][dH][dR]A-{NHCH2C6H4(4-CH2CONH2)})
Kd (K-Ras; [1]): 18 nM

CC(C)[C@H](NC(=O)[C@@H](Cc1ccc(O)cc1)NC(=O)[C@@H](Cc1c[nH]cn1)NC(=O)[C@H]1CCCN1C(=O)[C@@H](Cc1c[nH]c2ccccc12)NC(=O)c1ccc2c(c1)C(=O)OC21c2ccc(O)cc2Oc2cc(O)ccc21)C(=O)NCc1ccc(CC(=O)NCC(=O)N[C@@H](C(=O)N2CCC[C@@H]2C(=O)N[C@H](CCCNC(=N)N)C(=O)N[C@@H](C)C(=O)NCc2ccc(CC(=O)N3CCC[C@@H]3C(=O)N[C@H](CO)C(=O)N[C@H](CCC(=O)O)C(=O)N[C@H](CCCNC(=N)N)C(=O)NCC(=O)NCc3ccc(CC(=O)N4CCC[C@@H]4C(=O)N[C@H](CCCCN)C(=O)N[C@H](Cc4ccc(O)cc4)C(=O)N[C@H](CCCNC(=N)N)C(=O)N[C@@H](Cc4ccccc4)C(=O)NCc4ccc(CC(=O)N[C@H](CO)C(=O)N[C@H](CO)C(=O)NCC(=O)N[C@H](CC(N)=O)C(=O)N[C@@H](Cc5ccccc5)C(=O)NCc5ccc(CC(=O)NCC(=O)N[C@H](Cc6c[nH]c7ccccc67)C(=O)N[C@H](Cc6c[nH]cn6)C(=O)N[C@H](CCCNC(=N)N)C(=O)N[C@@H](C)C(=O)NCc6ccc(CC(N)=O)cc6)cc5)cc4)cc3)cc2)C(C)C)cc1 [KRAS-1-1] (5FAM-[dW][dP][dH][dY]V[X1]G[dV][dP][dR]A[X1][dP][dS][dE][dR]G[X1][dP][dK][dY][dR]F[X1][dS][dS]G[dN]F[X1]G[dW][dH][dR]A-{NHCH2C6H4(4-CH2CONH2)})
Kd (K-Ras; K-Ras, compound with fluorescein on N-term, read-out: KD[nM] in MST (with fluorescein on N-term)): 24 nM
Kd (K-Ras; [1]): 24 nM
HillSlope (cRaf/K-Ras (G12V) PPI; curve fit of % binding, K-Ras G12V 30 nM, GST-cRaf 10 nM): −0.7155
blank corrected HTRF (cRaf/K-Ras (G12V) PPI; conc. 1.00E−05): 4849
blank corrected HTRF (cRaf/K-Ras (G12V) PPI; conc. 1.11E−06): 6589
blank corrected HTRF (cRaf/K-Ras (G12V) PPI; conc. 1.23E−07): 12756
blank corrected HTRF (cRaf/K-Ras (G12V) PPI; conc. 1.37E−08): 14500
blank corrected HTRF (cRaf/K-Ras (G12V) PPI; conc. 3.33E−06): 5282
blank corrected HTRF (cRaf/K-Ras (G12V) PPI; conc. 3.70E−07): 11981
blank corrected HTRF (cRaf/K-Ras (G12V) PPI; conc. 4.12E−08): 14675
blank corrected HTRF (cRaf/K-Ras (G12V) PPI; conc. 5.08E−10): 13672
